Source: publication PMC12064818, “A general assay platform to study protein pharmacology using ligand-dependent structural dynamics” (Nature Communications, 2025)

What was measured:
P. pyralis FLuc = P. pyralis FLuc (Photinus pyralis, UniProt P08659); assay: FLuc enzymatic luminescence assay, P. pyralis FLuc; assay type: biochemical; settings: FLuc enzymatic assay; for Efficacy (%) FLuc E: Clade S follow-up; for IC50: read-out: IC50 or SDR50 (mM) FLuc E
Protocol: The enzyme activity of FLuc-N-HiBiT, FLuc-C-HiBiT, and FLuc-C-NLuc was measured similar to P. pyralis firefly luciferase (FLuc) as previously described. […] Compounds and controls were added to each plate as described in Supplementary Data 8 with a Hornet pintool system (Wako Automation). Compounds were incubated with respective enzymes for 30–60 min at room temperature protected from light and covered by solid metal lid to prevent evaporation. […] Luciferin was incubated with FLuc enzyme for 5 min before FLuc activity was then measured on a ViewLux CCD imager (PerkinElmer), with exposure times up to ten seconds with medium to high gain settings. Data were normalized to average no enzyme control as 100% enzyme inhibition and average DMSO neutral control. See Supplementary Table 4 for additional details.
Assays were run in the presence (solid symbols) or absence
(open symbols) of 10 µM ATP. Corresponding SMIL E S for NC GC IDs and source data are provided in
Supplementary Data 3 and as a Source Data file. 10
Supplementary Table 4. Protocol for Firefly luciferase (FLuc) and NanoLuc (NLuc) enzymatic
Supplementary Table 4: Protocol for Firefly luciferase (FLuc) and NanoLuc (NLuc) enzym atic lum inescence assay
Firefly luciferase (FLuc) enzym atic lum inescence assay
Sequence Param eter Value Description
No enzym e control (colum n 1) and enzym e solution (1- 10 nM FLuc enzym e) in FLuc assay
1 Reagent 4 µLbuffer; white/solid bottom , m edium bind, high base plates (Greiner), dispensed with BioRaptr
com pounds transferred to respective colum ns with Pintool
2b Test Com pounds 23 nLconcentration range) in colum ns 5- 48; com pounds transferred to respective wells with
3 Incubation 30 m in Incubate enzym e + com pounds at am bient tem p for 30 m in, protected from light
4 Reagent 3 µLAdd 3 µL of D-luciferin substrate solution to each well (final concentration 10 µM); dispensed
(§1) 5 Detector ViewLux Read plate lum inescence (Exposure = 1- 10 sec; Gain = Medium -high; Speed = Slow;
Dispensing solution was diluted in 1X PBS, pH 7.4. […]

[1] = biological target: FLuc-C-HiBiT (firefly luciferase) (Photinus pyralis, UniProt P08659, form not given/L550V); assay: SDR assay, FLuc-C-HiBiT; settings: SDR max. response, clade S
[2] = biological target: FLuc-C-NLuc (firefly luciferase) (Photinus pyralis, UniProt P08659, form not given/L550V); assay: SDR assay, FLuc-C-NLuc; settings: - ATP
NLuc = biological target: T1, NLuc (Oplophorus gracilirostris, UniProt Q9GV45, A31E/A60N/A81I/F95D/I117V/K70R/L54V/L99Q/M102K/N193R/P142E/Q151K/Q38R/Q45L/V71I/Y165I); assay type: biochemical; settings: - ATP
T1 construct: His tag (inferred from IMAC purification); made in house; host or cells: E. coli
Protocol: Compounds and controls were added to plates as described in Supplementary Data 8. Nano-Glo luciferase assay reagent (Promega) was prepared fresh according to manufacturer’s protocol, filtered and added at 3 μL per well across assay plates with a BioRaptr2 dispenser. Enzyme was incubated with Nano-Glo reagent for 10 min and NLuc luminescence was read on a ViewLux CCD imager (PerkinElmer), with 1 s exposure with medium gain and 2x binning. Data were normalized to average no enzyme control as 100% enzyme inhibition and average DMSO neutral control. See Supplementary Table 4 for additional details.
Supplementary Table 4. […]
Sequence Param eter Value Description […]
as §1
Dispensing solution was diluted in 1X PBS, pH 7.4.
NanoLuc luciferase (NLuc) enzym atic lum inescence assay […]
Nano-Glo luciferase assay reagent (Prom ega, Cat # N1120) prepared according to m anufacturer’s recom m endations,
4 com ponents stored at -30 °C until use, and reagent prepared fresh for each assay.
syringe filter prior to dispense.

P. pyralis FLuc, sequence (P08659 whole entry): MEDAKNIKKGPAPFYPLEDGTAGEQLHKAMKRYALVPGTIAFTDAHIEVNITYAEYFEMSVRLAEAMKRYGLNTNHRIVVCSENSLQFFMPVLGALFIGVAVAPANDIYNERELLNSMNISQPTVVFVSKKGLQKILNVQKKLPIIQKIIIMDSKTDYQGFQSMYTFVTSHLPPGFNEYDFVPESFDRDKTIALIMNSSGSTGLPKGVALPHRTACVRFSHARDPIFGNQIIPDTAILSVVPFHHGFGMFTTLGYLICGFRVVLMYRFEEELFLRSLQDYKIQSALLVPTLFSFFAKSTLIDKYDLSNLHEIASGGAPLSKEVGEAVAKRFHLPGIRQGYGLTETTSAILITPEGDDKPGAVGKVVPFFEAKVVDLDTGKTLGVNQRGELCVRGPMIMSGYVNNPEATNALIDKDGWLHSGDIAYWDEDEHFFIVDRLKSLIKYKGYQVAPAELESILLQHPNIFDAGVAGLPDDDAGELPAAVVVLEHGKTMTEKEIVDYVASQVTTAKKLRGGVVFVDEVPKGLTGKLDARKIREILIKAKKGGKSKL
T1 sequence (Q9GV45 other isoform, or with tags, fused parts or gaps with the stated changes): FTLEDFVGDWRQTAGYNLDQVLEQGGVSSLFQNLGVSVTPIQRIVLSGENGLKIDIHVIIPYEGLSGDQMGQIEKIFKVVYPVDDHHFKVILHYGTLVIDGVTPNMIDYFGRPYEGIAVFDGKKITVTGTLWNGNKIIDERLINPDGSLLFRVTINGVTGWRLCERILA
FLuc-C-NLuc (firefly luciferase), sequence (P08659 2-550 L550V, form open): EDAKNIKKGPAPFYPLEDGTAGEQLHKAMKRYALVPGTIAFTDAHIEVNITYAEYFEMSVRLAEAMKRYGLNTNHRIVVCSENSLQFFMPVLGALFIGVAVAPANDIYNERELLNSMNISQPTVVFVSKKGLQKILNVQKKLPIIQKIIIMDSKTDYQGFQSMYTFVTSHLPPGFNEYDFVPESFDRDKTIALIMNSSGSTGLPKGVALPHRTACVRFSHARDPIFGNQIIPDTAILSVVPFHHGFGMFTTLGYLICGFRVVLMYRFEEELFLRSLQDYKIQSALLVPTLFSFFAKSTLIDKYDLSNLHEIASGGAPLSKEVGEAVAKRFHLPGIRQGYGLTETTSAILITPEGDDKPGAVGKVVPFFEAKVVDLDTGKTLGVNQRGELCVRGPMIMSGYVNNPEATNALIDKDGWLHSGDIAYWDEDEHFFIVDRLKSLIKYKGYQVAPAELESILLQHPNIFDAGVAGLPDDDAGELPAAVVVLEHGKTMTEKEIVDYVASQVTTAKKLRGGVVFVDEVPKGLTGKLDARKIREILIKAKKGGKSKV
FLuc-C-HiBiT (firefly luciferase), sequence (P08659 2-550 L550V, form open): as above

Row | SMILES | pIC50 or pSDR50 FLuc E (P. pyralis FLuc) | Efficacy (%) FLuc E (P. pyralis FLuc) | IC50 (P. pyralis FLuc) | % Activity (max response, + ATP) [1] | % Activity (max response, - ATP) [1] | Efficacy (%) FLuc-C-NLuc SDR (-ATP) [2] | Efficacy (%) NLuc (- ATP) (NLuc)
1 | O=C(NCc1ccccc1Cl)C1CCN(C(=O)c2ncn3c2COC(c2ccccc2)C3)CC1 (centres unmarked) [NCGC00449786-01] | 5.01 | -73.36% | 0.00988 mM | 336.94% | 0.00% | 0.00% | 15.00%
2 | O=C(NCc1cccc(Cl)c1)C1CCN(C(=O)c2ncn3c2COC(c2ccccc2)C3)CC1 (centres unmarked) [NCGC00449787-01] | 4.96 | -81.06% | 0.0111 mM | 263.69% | 0.00% | 0.00% | -16.86%
3 | O=C(NCc1ccc(Cl)cc1)C1CCN(C(=O)c2ncn3c2COC(c2ccccc2)C3)CC1 (centres unmarked) [NCGC00449788-01] | 5.41 | -95.09% | 0.00393 mM | 324.91% | 0.00% | 0.00% | 0.00%
4 | O=C(NCc1ccc(F)c(Cl)c1)C1CCN(C(=O)c2ncn3c2COC(c2ccccc2)C3)CC1 (centres unmarked) [NCGC00449790-01] | 5.46 | -95.32% | 0.0035 mM | 237.76% | 0.00% | 0.00% | -17.00%
5 | O=C(NCCCc1ccccc1)C1CCN(C(=O)c2ncn3c2COC(c2ccccc2)C3)CC1 (centres unmarked) [NCGC00449797-01] | 5.36 | -79.71% | 0.00441 mM | 265.99% | 0.00% | 0.00% | 0.00%
6 | Cc1ccccc1CNC(=O)C1CCN(C(=O)c2ncn3c2COC(c2ccccc2)C3)CC1 (centres unmarked) [NCGC00449798-01] | 5.26 | -85.12% | 0.00555 mM | 370.72% | 0.00% | 0.00% | 0.00%
7 | O=C(NCc1cccc(F)c1)C1CCN(C(=O)c2ncn3c2COC(c2ccccc2)C3)CC1 (centres unmarked) [NCGC00449803-01] | 5.11 | -83.73% | 0.00784 mM | 254.28% | 0.00% | 0.00% | 0.00%
8 | CC(C)CNC(=O)C1CCN(C(=O)c2ncn3c2COC(c2ccc(F)cc2)C3)CC1 (centres unmarked) [NCGC00449805-01] | – | -24.33% | – | 48.51% | 0.00% | 0.00% | 0.00%
9 | O=C(NC1CC1)C1CCN(C(=O)c2ncn3c2COC(c2ccc(F)cc2)C3)CC1 (centres unmarked) [NCGC00449806-01] | 4.91 | -31.66% | 0.0124 mM | 47.67% | 0.00% | 0.00% | 0.00%
10 | O=C(NC1CCCCC1)C1CCN(C(=O)c2ncn3c2COC(c2ccc(F)cc2)C3)CC1 (centres unmarked) [NCGC00449807-01] | 4.96 | -25.30% | 0.0111 mM | 42.77% | 0.00% | 0.00% | 0.00%
